Numbered stars: 1 amine (or outer) side, 2 acyl side, 3 side chain; on linkers, the order of the positions; unused ones are H or OH. Bridge positions count the residues as written; N and C are the ends. Square brackets hold non-standard residues; d marks the D form. Peptide text beside a SMILES is read from it. * marks the point of attachment. hPhe(3,5-F2-4-CF3) = N[C@@H](CCc1cc(F)c(C(F)(F)F)c(F)c1)C(=O)O; hPhe(3-Cl-4-CF3) = N[C@@H](CCc1ccc(C(F)(F)F)c(Cl)c1)C(=O)O; NMePhe(4-CF3) = CN[C@@H](Cc1ccc(C(F)(F)F)cc1)C(=O)O; NMePhe(4-Me) = CN[C@@H](Cc1ccc(C)cc1)C(=O)O; NMedβ3hAla = C[C@H](CC(=O)[*:2])N(C)[*:1]; NMeGly(cPent) = CN[C@H](C(=O)O)C1CCCC1; NMeAla(cPr) = CN[C@@H](CC1CC1)C(=O)O; NMeCha = CN[C@@H](CC1CCCCC1)C(=O)O; NEtLeu = CCN[C@@H](CC(C)C)C(=O)O; NMeAhp(2) = CCCCC[C@H](NC)C(=O)O; NMeI = CC[C@H](C)[C@H](NC)C(=O)O; NMeT = CN[C@H](C(=O)O)[C@@H](C)O; NMeD = CN[C@@H](CC(=O)O)C(=O)O; NMeL = CN[C@@H](CC(C)C)C(=O)O; NMeV = CN[C@H](C(=O)O)C(C)C; NMeS = CN[C@@H](CO)C(=O)O; Morpholide = C1CN(*)CCO1; NMeA = CN[C@@H](C)C(=O)O; Piperidide = C1CCN(*)CC1; Ac5c = NC1(C(=O)O)CCCC1; Aze = O=C(O)[C@@H]1CCN1; Sar = CNCC(=O)O
Columns and labels:
[1] = system: Human pancreatic cancer cell line AsPC-1 (G12D mutation Kras); assay: AsPC-1 cell growth inhibition (AsPC-1 CGI); format: cell-based; settings: read-out: AsPC-1 cell growth inhibition, 50% growth inhibitory concentration (IC50 value); 96 hours, CellTiter-Glo, values classified in ranges
[2] = target: protein-protein interaction between Kras and SOS1 (biotin-tagged human Kras loaded with GDP, His-tagged human SOS1) (Homo sapiens (Human), UniProt P01116, G12D); assay: Protein-protein interaction inhibition between Kras and SOS1 (KrasG12D-SOS PPI) using AlphaScreen; format: biochemical; settings: AlphaScreen; biotin-tagged human Kras loaded with GDP, His-tagged human SOS1; read-out: KRAS G12D-SOS PPI IC50;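 also: kras produced in E. coli, Ni-coupled donor beads and streptavidin acceptor beads, excitation 680 nm with emission detected at 520–620 nm via singlet oxygen transfer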

Structure (SMILES)	IC50 [1]	IC50 [2]
CC[C@H](C)[C@@H]1NC(=O)[C@H](CC(C)C)N(C)C(=O)C[C@@H](C(=O)N2CCCCC2)N(C)C(=O)[C@H](C(C)C)N(C)C(=O)C2(CCCC2)NC(=O)[C@@H]2CCCN2C(=O)[C@H](CCc2ccc(C(F)(F)F)c(Cl)c2)NC(=O)CN(C)C(=O)[C@H](CC2CC2)N(C)C(=O)[C@@H]2CCN2C(=O)[C@H](C)N(C)C1=O [Compound 195] ([NMeL]I[NMeA][Aze][NMeAla(cPr)][Sar][hPhe(3-Cl-4-CF3)]P[Ac5c][NMeV][NMeD]-Piperidide; lactam N-11)	> 500 nM	9.5 nM
CC[C@H](C)[C@@H]1NC(=O)[C@H](CC(C)C)N(C)C(=O)C[C@@H](C)N(C)C(=O)[C@H](C2CCCC2)N(C)C(=O)C2(CCCC2)NC(=O)[C@@H]2CCCN2C(=O)[C@H](CCc2ccc(C(F)(F)F)c(Cl)c2)NC(=O)CN(C)C(=O)[C@H](Cc2ccc(C)cc2)N(C)C(=O)[C@@H]2CCN2C(=O)[C@H](C)N(C)C1=O [Compound 1750] (cyclo([Ac5c][NMeGly(cPent)][NMedβ3hAla][NMeL]I[NMeA][Aze][NMePhe(4-Me)][Sar][hPhe(3-Cl-4-CF3)]P))	≤ 20 nM	1.3 nM
CCCCC[C@H]1C(=O)N[C@@H]([C@@H](C)CC)C(=O)N(C)[C@@H](C)C(=O)N2CC[C@H]2C(=O)N(C)[C@@H](C2CCCC2)C(=O)N(C)CC(=O)N[C@@H](CCc2ccc(C(F)(F)F)c(Cl)c2)C(=O)N2CCC[C@H]2C(=O)NC2(CCCC2)C(=O)N(C)[C@@H](C2CCCC2)C(=O)N(C)[C@H](C(=O)N2CCOCC2)CC(=O)N1C [Compound 343] ([NMeAhp(2)]I[NMeA][Aze][NMeGly(cPent)][Sar][hPhe(3-Cl-4-CF3)]P[Ac5c][NMeGly(cPent)][NMeD]-Morpholide; lactam N-11)	≤ 20 nM	0.87 nM
CC[C@H](C)[C@@H]1NC(=O)[C@H](CC(C)C)N(C)C(=O)C[C@@H](C(=O)N2CCOCC2)N(C)C(=O)[C@H]([C@@H](C)CC)N(C)C(=O)C2(CCCC2)NC(=O)[C@@H]2CCCN2C(=O)[C@H](CCc2ccc(C(F)(F)F)c(Cl)c2)NC(=O)CN(C)C(=O)[C@H](Cc2ccc(C(F)(F)F)cc2)N(C)C(=O)[C@@H]2CCN2C(=O)[C@H](C)N(C)C1=O [Compound 276] ([NMeL]I[NMeA][Aze][NMePhe(4-CF3)][Sar][hPhe(3-Cl-4-CF3)]P[Ac5c][NMeI][NMeD]-Morpholide; lactam N-11)	≤ 20 nM	0.76 nM
CC[C@H](C)[C@@H]1NC(=O)[C@H](CC(C)C)N(C)C(=O)C[C@@H](C(=O)N(C)C)N(C)C(=O)[C@H](C2CCCC2)N(C)C(=O)C2(CCCC2)NC(=O)[C@@H]2CCCN2C(=O)[C@H](CCc2cc(F)c(C(F)(F)F)c(F)c2)NC(=O)CN(C)C(=O)[C@H](CC2CCCCC2)N(C)C(=O)[C@@H]2CCN2C(=O)[C@H](C)N(C)C1=O [Compound 1170] ([NMeL]I[NMeA][Aze][NMeCha][Sar][hPhe(3,5-F2-4-CF3)]P[Ac5c][NMeGly(cPent)][NMeD]-NMe2; lactam N-11)	≤ 20 nM	0.54 nM
CC[C@H](C)[C@@H]1NC(=O)[C@H](CC(C)C)N(C)C(=O)C[C@@H](C(=O)N2CCCCC2)N(C)C(=O)[C@H](C(C)C)N(C)C(=O)C2(CCCC2)NC(=O)[C@@H]2CCCN2C(=O)[C@H](CCc2ccc(C(F)(F)F)c(Cl)c2)NC(=O)CN(C)C(=O)[C@H](CO)N(C)C(=O)[C@@H]2CCN2C(=O)[C@H](C)N(C)C1=O [Compound 1721] ([NMeL]I[NMeA][Aze][NMeS][Sar][hPhe(3-Cl-4-CF3)]P[Ac5c][NMeV][NMeD]-Piperidide; lactam N-11)	> 500 nM	22 nM
CC[C@H](C)[C@@H]1NC(=O)[C@H](CC(C)C)N(CC)C(=O)C[C@@H](C(=O)N(C)C)N(C)C(=O)[C@H]([C@@H](C)CC)N(C)C(=O)C2(CCCC2)NC(=O)[C@@H]2CCCN2C(=O)[C@H](CCc2ccc(C(F)(F)F)c(Cl)c2)NC(=O)CN(C)C(=O)[C@H](Cc2ccc(C)cc2)N(C)C(=O)[C@@H]2CCN2C(=O)[C@H](C)N(C)C1=O [Compound 1365] ([NEtLeu]I[NMeA][Aze][NMePhe(4-Me)][Sar][hPhe(3-Cl-4-CF3)]P[Ac5c][NMeI][NMeD]-NMe2; lactam N-11)	≤ 20 nM	1.2 nM
CC[C@H](C)[C@@H]1NC(=O)[C@H](CC(C)C)N(C)C(=O)C[C@@H](C(=O)N(C)C)N(C)C(=O)[C@H]([C@@H](C)CC)N(C)C(=O)[C@H](C(C)C)NC(=O)[C@@H]2CCCN2C(=O)[C@H](CCc2ccc(C(F)(F)F)c(Cl)c2)NC(=O)CN(C)C(=O)[C@H](Cc2ccc(C)cc2)N(C)C(=O)[C@@H]2CCN2C(=O)[C@H](C)N(C)C1=O [Compound 784] ([NMeL]I[NMeA][Aze][NMePhe(4-Me)][Sar][hPhe(3-Cl-4-CF3)]PV[NMeI][NMeD]-NMe2; lactam N-11)	> 500 nM	4 nM
CC[C@H](C)[C@@H]1NC(=O)[C@H](CC(C)C)N(C)C(=O)C[C@@H](C(=O)N2CCCCC2)N(C)C(=O)[C@H](C(C)C)N(C)C(=O)C2(CCCC2)NC(=O)[C@@H]2CCCN2C(=O)[C@H](CCc2ccc(C(F)(F)F)c(Cl)c2)NC(=O)CN(C)C(=O)[C@H]([C@@H](C)O)N(C)C(=O)[C@@H]2CCN2C(=O)[C@H](C)N(C)C1=O [Compound 862] ([NMeL]I[NMeA][Aze][NMeT][Sar][hPhe(3-Cl-4-CF3)]P[Ac5c][NMeV][NMeD]-Piperidide; lactam N-11)	> 500 nM	2.7 nM

Source: US20240148821A1, “PHARMACEUTICAL USE OF CYCLIC PEPTIDE COMPOUND” (CHUGAI SEIYAKU KABUSHIKI KAISHA, priority 2021, published 2024)
